Measurements as given in the NIST ThermoML archive (doi:10.1016/j.fluid.2013.10.060).
± gives the expanded uncertainty stated by the source.

Columns and labels:
[1] = Boiling temperature at pressure P; conditions: 101.33 kPa; Liquid; Ebulliometric method (Recirculating still)
[2] = refractive index (Na D-line) (dimensionless); conditions: 298.15 K; 101.33 kPa; Liquid; Standard Abbe refractometry
[3] = for mass density: 298.15 K, 101.33 kPa, Liquid, Vibrating tube method; for surface tension liquid-gas: 303.15 K, Maximal bubble pressure

| Boiling temperature at pressure P [1] [°C] | refractive index [2] | mass density [3] [kg/m3] | surface tension liquid-gas [3] [mN/m] | SMILES |
| --- | --- | --- | --- | --- |
| 88.21 ± 0.02 | 1.42 ± 0.00031 | 879.03 ± 0.13 | 27.1 ± 0.2 | C1CCOCC1 [tetrahydropyran] |
| 78.30 ± 0.02 | 1.36068 ± 0.00031 | 785.09 ± 0.15 | 21.7 ± 0.18 | CCO [ethanol] |

| SMILES | Boiling temperature at pressure P [1] [°C] | refractive index [2] | mass density [3] [kg/m3] | surface tension liquid-gas [3] [mN/m] |
| --- | --- | --- | --- | --- |
| CCCCCC [hexane] | – | 1.37374 ± 0.00031 | 655.19 ± 0.18 | 17.4 ± 0.16 |
